Measured values as given in patent US10993957B2 (NuCana plc, priority 2011, dated 2021).
Where two headings read alike, the source gives them in different places.

Key:
[1] = molecular target: Thymidine Phosphorylase purified from Escherichia coli (Escherichia coli, UniProt P07650); assay: Phosphorylase assay by in situ 19F NMR; details: potassium phosphate buffer 300 nM, pH 7.4; after 5 min, 14 h and 72 h
Method: Two potassium phosphate buffers at pH=7.4, 200 nM solution and 300 nM solution respectively, were used as phosphate donor. Units of enzyme were defined as the amount of enzyme required to hydrolyse about 0.25 mg of inosine per min used as standard. Assays were conducted for 30 minutes.

[2] = Stability in buffer at pH 1 by 31P NMR; format: physicochemical; details: 14 hours
Method: The stability of the prodrug CPF-373 towards hydrolysis at pH=1 was studied using in situ ^31P NMR (202 MHz). The ProTide CPF-373 (1) (2.6 mg) was dissolved in MeOD (0.1 mL) after which 0.5 mL buffer (pH=1) (prepared from equal parts of 0.2 M HCl and 0.2 M KCl) was added. Then the sample was transferred into an NMR tube, and a ^31P NMR experiment was performed at 37° C. recording the data every 12 minutes for 14 hours. Data were processed and analysed with the Bruker Topspin 2.1 program.
A chemical hydrolysis was evaluated under experimental conditions at pH 1 and pH 8 and monitored by ^31P NMR. During the assay (14 h) under acidic conditions (pH 1) only two peaks representing the two diastereoisomers were recorded.

Cem/hEnt-0 = assay: Cytostatic assay, CEM cells lacking the hEnt1 transporter; format: cell-based; details: Table 8; read-out: IC50 Cem/hEnt-0
Source text: (§1) Data are mean (±SD) of at least two to four independent experiments. Table 8 identifies the phosphoramidate motif of compounds embodying the present invention, as discussed above with respect to Table 6, but with “Naph” standing for 1-naphthyl.

HeLa/TK^− = assay: Cytostatic assay, HeLa/TK^− cells; format: cell-based; details: Table 6; read-out: IC50 HeLa/TK^−
Source text: (§2) The cell lines employed were L1210/0 (a leukemia cell line), FM3A/0 (a breast cancer cell line), Cem/0 (an acute lymphoblastic leukemia cell line) and HeLa (a cervical cell line).

L1210.Hyor = assay: Cytostatic assay, Mycoplasma hyorhinis-infected L1210 cells
Outline: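 Proliferation read by Coulter counting after 48 h exposure of compound-treated L1210 cells carrying M. hyorhinis infection (60,000 cells/well, DMEM with 10% FBS, 37 °C). Values also given as percent activity retained in infected cells.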

HeLa = assay: Cytostatic assay, HeLa cells; format: cell-based; details: Table 6; read-out: IC50 HeLa
Source text: as §2

Cem/hEnt-1 = assay: Cytostatic assay, CEM cells containing the hEnt1 transporter; format: cell-based
Source text: as §1

Cem/0 = assay: Cytostatic assay, CEM/0 cells; format: cell-based, human; details: Table 6; read-out: IC50 Cem/0
Source text: as §2

L1210/TK^− = assay: Cytostatic assay, thymidine kinase-deficient L1210/TK^− cells; format: cell-based, murine; details: Table 6; read-out: IC50 L1210/TK^−
L1210/0 = assay: Cytostatic assay, L1210/0 cells; format: cell-based, murine; details: for IC50: read-out: IC50 L1210/0
Source text: as §2

Cem/TK^− = assay: Cytostatic assay, thymidine kinase-deficient CEM/TK^− cells; format: cell-based, human; details: Table 6; read-out: IC50 Cem/TK^−

Chain of Thymidine Phosphorylase purified from Escherichia coli (P07650 whole entry): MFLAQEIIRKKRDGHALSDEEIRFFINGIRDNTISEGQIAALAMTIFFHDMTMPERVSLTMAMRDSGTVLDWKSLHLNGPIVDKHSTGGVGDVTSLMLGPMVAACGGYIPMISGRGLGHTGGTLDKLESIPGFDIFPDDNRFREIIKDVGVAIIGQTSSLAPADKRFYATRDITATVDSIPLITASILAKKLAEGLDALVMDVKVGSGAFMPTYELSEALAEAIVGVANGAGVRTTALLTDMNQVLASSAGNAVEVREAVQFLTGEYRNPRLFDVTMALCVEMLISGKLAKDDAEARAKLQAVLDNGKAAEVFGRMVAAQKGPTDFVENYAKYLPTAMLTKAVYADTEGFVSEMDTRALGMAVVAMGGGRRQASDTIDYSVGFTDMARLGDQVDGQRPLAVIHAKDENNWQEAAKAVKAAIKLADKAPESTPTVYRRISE

## C[C@H](NP(=O)(OC[C@H]1O[C@@H](n2cc(F)c(=O)[nH]c2=O)CC1O)Oc1ccccc1)C(=O)OCc1ccccc1 (stereo partly drawn) [CPF 381, 5-Fluoro-2′-deoxyuridine-5′-O-[phenyl(benzoxy-L-alaninyl)]phosphate]
[1]
  Phosphorolysis by thymidine phosphorylase (19F NMR): did not show any evidence of phosphorolysis
[2]
  Stability towards hydrolysis at pH 1: highly stable
Cem/hEnt-0
  IC50: 1400 ± 650 nM
HeLa/TK^−
  IC50: 19000 ± 2000 nM
L1210.Hyor; CC50 L1210 × 100 ÷ CC50 L1210/Hyor
  % Retention: 18%
L1210.Hyor; Table 7
  IC50(L1210.Hyor)/IC50(L1210/0): 5.8
L1210.Hyor; read-out: CC50 L1210/Hyor, Table 2, mycoplasma positive cells
  CC50: 150 nM
L1210.Hyor; read-out: IC50 L1210.Hyor, Table 7
  IC50: 150 ± 6 nM
HeLa
  IC50: 130 ± 10 nM
Cem/hEnt-1; Table 8, read-out: IC50 Cem/hEnt-1
  IC50: 130 ± 50 nM
Cem/hEnt-1; in the presence of NBMPR, read-out: IC50 Cem/hEnt-1 + NBMPR
  IC50: 720 nM
Cem/hEnt-1; in the presence of dipyridamole, read-out: IC50 Cem/hEnt-1 + dipyridamole
  IC50: 660 nM
Cem/0
  IC50: 180 ± 30 nM
L1210/TK^−
  IC50: 13000 ± 8000 nM
L1210/0; Table 2, mycoplasma negative cells, read-out: CC50 L1210
  CC50: 26 nM
L1210/0; Table 6
  IC50: 28 ± 7 nM
L1210/0; Table 7
  IC50: 26 ± 8 nM
Cem/TK^−
  IC50: 22000 ± 7000 nM
